US10022376B2 (Pfizer Inc., priority 2014, dated 2018)

Legend:
JAK2 = JAK2 (Homo sapiens (Human), UniProt O60674); assay: JAK Caliper Enzyme Assay at 1 mM ATP (JAK2); type: biochemical; details: Caliper assay at 1 mM ATP
JAK1 = JAK1 (Homo sapiens (Human), UniProt P23458); assay: JAK Caliper Enzyme Assay at 1 mM ATP (JAK1); type: biochemical; details: Caliper assay at 1 mM ATP
[1] = test system: rhIL-2 stimulated STAT5 phosphorylation in isolated human T cells; assay: Human T Cell Assay: Inhibition of pSTAT5; type: cell-based
Description: Human T Cell Assay: Inhibition of pSTAT5
An assay measuring the efficacy of JAK inhibitors on the functional response of recombinant human interleukin-2 (rhIL-2) stimulated STAT5 phosphorylation in isolated human T cells.
Human whole blood from individual donors was collected from the phlebotomy unit on-site. Peripheral venous blood (30-60 mL) from healthy volunteers of either sex was used as the source of T cells. T cell isolation from venous whole blood is routinely performed in a class II microbiological safety cabinet. Each sample was collected into between 3 and 6 10 mL Sodium Heparin Vacutainer tubes (BD #367874). The blood was poured into sterile 50 mL conicals (Corning #430828) and incubated with the T cell Rosette Sep Cocktail (Stemcell Technologies #15061) at 50 μL/mL antibody/blood ratio for 20 min. with shaking at room temperature. The blood/antibody mixture was then diluted 1:2 with PBS (Pfizer media prep)/2% FBS (Sigma #F4135) and 30 mL of the mixture was layered onto 15 mL Ficoll-Hypaque (GE Healthcare #17-1440-03) in 50 mL conical tubes. The tubes were then centrifuged at 1200×g for 20 min. at room temperature with no brake. Following centrifugation the T cells formed a buffy coat between the Ficoll-Hypaque and plasma layers. The plasma above the buffy coats was removed to within 5 mm of the buffy coat using a sterile Pasteur pipette. The buffy coats were then collected into fresh sterile 50 mL conical tubes containing 25 mL PBS/2% FBS (2 buffy coats per 50 mL conical). PBS/2% FBS was added to the buffy coat cells such that the final volume in the tube was 50 mL. The tubes were then centrifuged at 200×g for 15 min. at room temperature. The supernatant was discarded and the pellet re-suspended in 10-20 mL of DMEM (Pfizer media prep) Assay media/0.2% BSA (Miltenyi #130-091-376). A differential cell count was performed using a haemacytometer and cells were diluted to 1.1×10^6 T cells/ml in DMEM/0.2% BSA media. Compounds (10 mM-0.3 μM) were diluted with Hanks Balanced Salt Solution (HBSS) (Sigma #H6648) at 1:100 dilution. Immediately following cell isolation and compound dilution, 90 μl/well of T cells (˜1×10^6/ml) in assay medium (DMEM+0.2% BSA) was added to the VWR Deep well V bottom plate (#3906-520-300). 10 μl/well of compound (final concentration range of 10 μM-0.3 nM with 0.1% DMSO) or 0.1% DMSO in HBSS as controls was added to the appropriate wells. Plates were incubated for 1 hour at 37° C., 5% CO2 incubator. 10 μl of 3.3 μg/mL rhIL-2 (R&D Systems #202-IL) was added to the cells (300 ng/ml final assay concentration). Wells containing T cells, medium with 0.1% DMSO and no rhIL-2 were used as background controls. Plates were incubated for 15 min at 37° C. After rhIL-2 stimulation, 800 μL of cold PBS/0.1% BSA was added and the plates were centrifuged at 1400 rpm for 5 min at 4° C. Supernatant was aspirated and 100 μL of ice-cold MSD lysis buffer containing protease and phosphatase inhibitors from Phospho-STAT5a/b Tyr694 assay kit (Meso-Scale Discovery #K150IGD) was added to the cell pellet. Plates were shaken for 30 min. at 4° C. and then frozen overnight. The following day, cell lysates were assayed using the MSD ELISA kit protocol for detection of pSTAT5.
Data were collected and transformed into percent inhibition and calculated using the following formula: […]

[2] = test system: rhIFNγ stimulated STAT-3 phosphorylation in the A549 human epithelial cell line; assay: A549 Cell Assay: Inhibition of pSTAT3; type: cell-based; details: Homo sapiens; A549 cells
How it was run: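 Percent inhibition of STAT3 Tyr705 phosphorylation was measured by MSD immunoassay of cell lysates. A549 cells were given compound for 1 h at 37° C (final 0.3 nM to 10 μM, 0.1% DMSO, in 0.2% BSA DMEM), followed by 30 min of rhIFNγ stimulation at 20 ng/mL final. Unstimulated DMSO wells served as background.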

JAK3 = JAK3 (Homo sapiens (Human), UniProt P52333); assay: JAK Caliper Enzyme Assay at 1 mM ATP (JAK3); type: biochemical; details: Caliper assay at 1 mM ATP
TYK2 = TYK2 (Homo sapiens (Human), UniProt P29597); assay: JAK Caliper Enzyme Assay at 1 mM ATP (TYK2); type: biochemical; details: Caliper assay at 1 mM ATP
TYK2, sequence (P29597 whole entry): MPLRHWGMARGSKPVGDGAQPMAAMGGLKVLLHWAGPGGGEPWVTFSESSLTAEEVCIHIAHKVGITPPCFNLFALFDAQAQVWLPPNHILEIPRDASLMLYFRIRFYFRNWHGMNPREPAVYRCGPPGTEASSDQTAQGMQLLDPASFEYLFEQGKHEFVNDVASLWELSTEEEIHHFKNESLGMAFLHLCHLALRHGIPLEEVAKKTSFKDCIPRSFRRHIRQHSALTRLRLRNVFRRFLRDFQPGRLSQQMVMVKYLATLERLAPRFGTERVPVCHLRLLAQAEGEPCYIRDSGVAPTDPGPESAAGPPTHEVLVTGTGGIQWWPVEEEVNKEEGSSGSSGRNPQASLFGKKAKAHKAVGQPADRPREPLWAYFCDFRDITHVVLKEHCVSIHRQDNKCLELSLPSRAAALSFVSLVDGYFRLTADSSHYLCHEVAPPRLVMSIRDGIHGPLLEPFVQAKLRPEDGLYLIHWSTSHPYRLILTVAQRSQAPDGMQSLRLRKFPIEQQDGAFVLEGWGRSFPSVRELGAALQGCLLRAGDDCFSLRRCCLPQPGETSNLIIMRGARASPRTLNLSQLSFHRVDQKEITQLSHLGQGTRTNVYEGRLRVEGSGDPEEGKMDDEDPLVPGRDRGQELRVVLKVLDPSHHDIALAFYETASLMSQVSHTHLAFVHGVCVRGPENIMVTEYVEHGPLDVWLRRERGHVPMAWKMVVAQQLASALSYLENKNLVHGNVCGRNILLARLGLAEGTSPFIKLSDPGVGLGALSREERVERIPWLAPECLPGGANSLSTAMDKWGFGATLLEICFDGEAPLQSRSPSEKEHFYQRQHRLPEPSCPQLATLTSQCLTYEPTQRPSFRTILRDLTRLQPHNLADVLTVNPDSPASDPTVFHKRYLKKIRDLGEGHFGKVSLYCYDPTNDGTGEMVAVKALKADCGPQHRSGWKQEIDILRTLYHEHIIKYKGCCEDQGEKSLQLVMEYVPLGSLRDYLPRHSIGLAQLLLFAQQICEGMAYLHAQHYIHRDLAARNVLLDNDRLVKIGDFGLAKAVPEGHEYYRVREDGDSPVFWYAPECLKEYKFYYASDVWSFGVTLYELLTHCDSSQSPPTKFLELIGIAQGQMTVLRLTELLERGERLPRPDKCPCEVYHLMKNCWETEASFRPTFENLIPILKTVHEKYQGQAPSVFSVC

JAK3, sequence (P52333 whole entry): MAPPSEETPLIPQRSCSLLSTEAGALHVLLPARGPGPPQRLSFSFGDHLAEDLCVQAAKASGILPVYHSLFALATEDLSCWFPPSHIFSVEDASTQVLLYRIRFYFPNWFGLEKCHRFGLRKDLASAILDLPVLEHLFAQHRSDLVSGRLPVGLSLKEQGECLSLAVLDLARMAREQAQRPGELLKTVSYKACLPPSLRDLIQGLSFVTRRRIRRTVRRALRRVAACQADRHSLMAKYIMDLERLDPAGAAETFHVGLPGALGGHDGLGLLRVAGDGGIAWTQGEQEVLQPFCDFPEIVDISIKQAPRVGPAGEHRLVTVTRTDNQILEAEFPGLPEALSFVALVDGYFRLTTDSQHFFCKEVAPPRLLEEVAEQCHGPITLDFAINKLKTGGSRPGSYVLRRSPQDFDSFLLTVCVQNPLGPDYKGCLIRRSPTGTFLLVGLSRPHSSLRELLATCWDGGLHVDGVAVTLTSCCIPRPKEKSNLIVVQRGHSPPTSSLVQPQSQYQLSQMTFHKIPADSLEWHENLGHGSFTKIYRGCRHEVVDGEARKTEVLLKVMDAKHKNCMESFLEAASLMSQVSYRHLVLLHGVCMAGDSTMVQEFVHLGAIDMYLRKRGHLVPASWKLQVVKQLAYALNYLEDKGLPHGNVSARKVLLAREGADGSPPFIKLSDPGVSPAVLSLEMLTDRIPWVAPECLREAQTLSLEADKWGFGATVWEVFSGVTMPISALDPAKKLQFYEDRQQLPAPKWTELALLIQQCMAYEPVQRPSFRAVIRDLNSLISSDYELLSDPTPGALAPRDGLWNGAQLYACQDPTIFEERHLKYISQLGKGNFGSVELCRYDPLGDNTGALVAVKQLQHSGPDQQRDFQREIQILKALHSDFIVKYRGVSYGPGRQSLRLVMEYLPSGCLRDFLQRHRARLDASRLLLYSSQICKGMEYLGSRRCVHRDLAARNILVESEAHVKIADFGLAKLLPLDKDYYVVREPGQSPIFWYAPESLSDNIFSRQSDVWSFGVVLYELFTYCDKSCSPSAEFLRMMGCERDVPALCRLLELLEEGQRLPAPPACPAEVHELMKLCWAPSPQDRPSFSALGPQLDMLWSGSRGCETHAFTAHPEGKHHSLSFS
JAK1, sequence (P23458 whole entry): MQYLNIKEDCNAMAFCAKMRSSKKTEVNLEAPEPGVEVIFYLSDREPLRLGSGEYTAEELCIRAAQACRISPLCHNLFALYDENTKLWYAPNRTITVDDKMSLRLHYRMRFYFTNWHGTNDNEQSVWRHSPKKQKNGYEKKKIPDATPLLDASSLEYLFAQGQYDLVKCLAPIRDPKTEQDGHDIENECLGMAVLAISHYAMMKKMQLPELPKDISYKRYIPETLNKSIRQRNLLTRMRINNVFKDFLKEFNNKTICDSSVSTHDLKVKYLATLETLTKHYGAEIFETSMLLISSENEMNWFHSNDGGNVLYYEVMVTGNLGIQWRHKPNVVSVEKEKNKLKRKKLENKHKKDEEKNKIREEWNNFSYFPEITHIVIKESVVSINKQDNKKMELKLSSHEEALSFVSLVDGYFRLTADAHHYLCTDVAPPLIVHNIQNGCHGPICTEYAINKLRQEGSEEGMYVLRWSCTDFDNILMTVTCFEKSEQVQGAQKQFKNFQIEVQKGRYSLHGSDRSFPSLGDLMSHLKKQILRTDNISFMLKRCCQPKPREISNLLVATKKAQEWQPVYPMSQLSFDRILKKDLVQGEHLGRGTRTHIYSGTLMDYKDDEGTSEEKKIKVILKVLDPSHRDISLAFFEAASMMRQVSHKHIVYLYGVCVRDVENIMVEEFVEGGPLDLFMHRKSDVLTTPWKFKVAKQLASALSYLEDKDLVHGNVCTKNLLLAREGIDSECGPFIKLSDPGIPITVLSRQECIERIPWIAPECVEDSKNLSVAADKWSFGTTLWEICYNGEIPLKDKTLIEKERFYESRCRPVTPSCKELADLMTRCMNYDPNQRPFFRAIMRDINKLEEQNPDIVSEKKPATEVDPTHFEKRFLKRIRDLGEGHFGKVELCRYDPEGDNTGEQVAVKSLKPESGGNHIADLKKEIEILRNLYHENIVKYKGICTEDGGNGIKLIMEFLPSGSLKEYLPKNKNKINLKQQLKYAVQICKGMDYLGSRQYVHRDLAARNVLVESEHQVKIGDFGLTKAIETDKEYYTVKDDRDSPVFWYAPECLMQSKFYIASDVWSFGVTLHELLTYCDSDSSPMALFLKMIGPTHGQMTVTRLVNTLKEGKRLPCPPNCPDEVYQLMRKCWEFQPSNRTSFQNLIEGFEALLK
JAK2, sequence (O60674 whole entry): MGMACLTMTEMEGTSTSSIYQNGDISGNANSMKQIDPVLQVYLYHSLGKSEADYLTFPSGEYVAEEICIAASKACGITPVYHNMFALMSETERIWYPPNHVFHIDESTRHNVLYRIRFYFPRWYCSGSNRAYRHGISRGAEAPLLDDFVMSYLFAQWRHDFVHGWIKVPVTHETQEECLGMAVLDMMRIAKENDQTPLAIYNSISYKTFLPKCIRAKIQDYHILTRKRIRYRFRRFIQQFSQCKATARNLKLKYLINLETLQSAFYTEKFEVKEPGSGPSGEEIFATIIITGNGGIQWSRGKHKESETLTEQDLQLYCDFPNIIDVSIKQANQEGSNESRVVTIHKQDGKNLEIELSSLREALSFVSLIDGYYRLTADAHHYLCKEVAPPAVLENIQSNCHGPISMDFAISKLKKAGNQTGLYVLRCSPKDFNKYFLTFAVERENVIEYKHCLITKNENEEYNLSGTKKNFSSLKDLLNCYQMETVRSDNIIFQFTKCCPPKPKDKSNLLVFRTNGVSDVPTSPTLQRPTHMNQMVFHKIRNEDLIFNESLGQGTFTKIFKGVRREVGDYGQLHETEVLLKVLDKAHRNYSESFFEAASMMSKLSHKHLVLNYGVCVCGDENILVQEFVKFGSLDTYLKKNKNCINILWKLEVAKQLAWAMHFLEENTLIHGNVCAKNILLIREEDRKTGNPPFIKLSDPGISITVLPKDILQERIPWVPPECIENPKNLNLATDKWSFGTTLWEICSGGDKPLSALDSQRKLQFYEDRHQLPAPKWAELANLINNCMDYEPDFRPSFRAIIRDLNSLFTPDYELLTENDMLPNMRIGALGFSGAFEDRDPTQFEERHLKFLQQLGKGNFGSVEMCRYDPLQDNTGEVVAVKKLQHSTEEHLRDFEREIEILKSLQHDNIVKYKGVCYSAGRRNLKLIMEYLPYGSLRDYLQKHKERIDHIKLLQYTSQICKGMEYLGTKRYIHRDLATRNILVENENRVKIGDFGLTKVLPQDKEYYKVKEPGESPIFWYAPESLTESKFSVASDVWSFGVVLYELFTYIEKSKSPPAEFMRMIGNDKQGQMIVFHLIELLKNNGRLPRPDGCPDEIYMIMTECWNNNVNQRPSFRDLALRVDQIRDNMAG

SMILES: CNC(=O)c1n[nH]c2cc(-c3cc(F)c(O)cc3CC(F)(F)F)nc(NCc3ccccc3N(C)S(C)(=O)=O)c12 [Example 20, 6-[5-fluoro-4-hydroxy-2-(2,2,2-trifluoroethyl)phenyl]-N-methyl-4-({2-[methyl(methylsulfonyl)amino]benzyl}amino)-1H-pyrazolo[4,3-c]pyridine-3-carboxamide]
- IC50 (JAK2): 16.6 nM
- IC50 (JAK1): 3.6 nM
- IC50 [1]: 31.9 nM
- IC50 [2]: 18.8 nM
- IC50 (JAK3): 95.3 nM
- IC50 (TYK2): 20.9 nM
